From US10980781B2, “6-amino-2,4-dihydropyrano [2,3-c] pyrazoles and methods of use” (Purdue Research Foundation, priority 2017, dated 2021)

Target: USP7 (Homo sapiens (Human), UniProt Q93009)
Experiment: USP7 inhibition assay with Ub-Rho 110 substrate (fluorescence progress curves)
Type: biochemical
Conditions: for inhibition at 100 µM: 100 μM compound, 1 nM USP7, 200 nM Ub-Rho 110, 3% DMSO, triplicate
Protocol: Each assay was measured in triplicate. […] All reactions contained a final concentration of 3% DMSO. […] The percent inhibition was calculated using Equation (1).
The assay design was identical to as described above. The percent inhibition was calculated using Equation 1 and fit to Equation 2 by use of the Enzyme Kinetics Module of Sigma Plot (v13:Systat Software Inc.), to determine the IC50 value.

Chain of USP7 (Q93009 whole entry): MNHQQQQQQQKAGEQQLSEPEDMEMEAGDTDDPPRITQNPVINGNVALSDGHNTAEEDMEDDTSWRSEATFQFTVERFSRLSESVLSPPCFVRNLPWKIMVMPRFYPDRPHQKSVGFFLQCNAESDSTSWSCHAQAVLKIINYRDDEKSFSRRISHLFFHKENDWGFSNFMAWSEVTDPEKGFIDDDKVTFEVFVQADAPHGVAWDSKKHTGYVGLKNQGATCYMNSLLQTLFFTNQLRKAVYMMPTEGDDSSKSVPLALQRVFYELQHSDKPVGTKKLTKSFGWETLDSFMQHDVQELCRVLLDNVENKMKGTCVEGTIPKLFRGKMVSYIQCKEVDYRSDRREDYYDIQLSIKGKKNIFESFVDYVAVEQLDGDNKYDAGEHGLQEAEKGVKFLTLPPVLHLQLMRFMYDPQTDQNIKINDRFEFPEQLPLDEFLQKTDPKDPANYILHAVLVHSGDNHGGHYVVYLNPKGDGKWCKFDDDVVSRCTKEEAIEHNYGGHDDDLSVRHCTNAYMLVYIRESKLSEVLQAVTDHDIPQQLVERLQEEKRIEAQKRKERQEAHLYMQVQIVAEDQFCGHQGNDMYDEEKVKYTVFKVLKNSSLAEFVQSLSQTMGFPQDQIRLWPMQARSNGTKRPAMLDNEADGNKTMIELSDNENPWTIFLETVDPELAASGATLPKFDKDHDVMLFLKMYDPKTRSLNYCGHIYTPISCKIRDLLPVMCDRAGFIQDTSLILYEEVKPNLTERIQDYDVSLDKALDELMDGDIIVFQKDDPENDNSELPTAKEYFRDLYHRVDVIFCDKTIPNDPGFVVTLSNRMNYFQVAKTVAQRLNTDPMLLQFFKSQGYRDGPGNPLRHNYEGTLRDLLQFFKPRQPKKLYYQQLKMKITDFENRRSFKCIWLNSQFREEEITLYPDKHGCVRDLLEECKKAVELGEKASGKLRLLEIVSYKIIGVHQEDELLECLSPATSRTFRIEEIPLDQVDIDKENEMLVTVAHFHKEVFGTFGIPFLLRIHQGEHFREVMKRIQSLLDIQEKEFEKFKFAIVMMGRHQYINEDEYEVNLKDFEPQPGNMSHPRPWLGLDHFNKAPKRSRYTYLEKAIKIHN

| inhibition at 100 µM | Compound | IC50 (11 compound concentrations, two-fold serial dilutions, 1 nM USP7, 200 nM Ub-Rho 110) |
| --- | --- | --- |
| 0% | COc1ccc(C2C(C#N)=C(N)Oc3c2c(-c2cccs2)nn3C)cc1Br (stereo not drawn) [Compound 9a, 6-Amino-4-(3-bromo-4-methoxyphenyl)-1-methyl-3-(thiophen-2-yl)-1,4-dihydropyrano[2,3-c]pyrazole-5-carbonitrile] | – |
| 0% | COc1ccc(C2C(C#N)=C(N)Oc3c2c(-c2cccs2)nn3C)cc1I (stereo not drawn) [Compound 9b, 6-Amino-4-(3-iodo-4-methoxyphenyl)-1-methyl-3-(thiophen-2-yl)-1,4-dihydropyrano[2,3-c]pyrazole-5-carbonitrile] | – |

More lines, now with the values behind:

| Compound | inhibition at 100 µM | IC50 (11 compound concentrations, two-fold serial dilutions, 1 nM USP7, 200 nM Ub-Rho 110) |
| --- | --- | --- |
| COc1ccc(C2C(C#N)=C(N)Oc3n[nH]c(-c4cc(C)sc4C)c32)cc1Br (stereo not drawn) [Compound 7n, 6-Amino-4-(3-bromo-4-methoxyphenyl)-3-(2,5-dimethylthiophen-3-yl)-2,4-dihydropyrano[2,3-c]pyrazole-5-carbonitrile] | 32 ± 3% | – |
| COc1ccc(C2C(C#N)=C(N)Oc3n[nH]c(-c4cc(C)sc4C)c32)cc1I (stereo not drawn) [Compound 7o, 6-Amino-3-(2,5-dimethylthiophen-3-yl)-4-(3-iodo-4-methoxyphenyl)-2,4-dihydropyrano[2,3-c]pyrazole-5-carbonitrile] | 29 ± 6% | – |
| CCOCNC1=C(C#N)C(c2ccc(OC)c(Br)c2)c2c(-c3cccs3)nn(C)c2O1 (stereo not drawn) [Compound 11, 4-(3-Bromo-4-methoxyphenyl)-6-((ethoxymethyl)amino)-1-methyl-3-(thiophen-2-yl)-1,4-dihydropyrano [2,3-c]pyrazole-5-carbonitrile] | 0% | – |
| CNC1=C(C#N)C(c2ccc(OC)c(Br)c2)c2c(n[nH]c2-c2cccs2)O1 (stereo not drawn) [Compound 13, 4-(3-Bromo-4-methoxyphenyl)-6-(methylamino)-3-(thiophen-2-yl)-2,4-dihydropyrano[2,3-c]pyrazole-5-carbonitrile] | 47 ± 1% | – |
| COc1ccc(C2C(C#N)=C(N)Oc3nn(C(C)=O)c(-c4cccs4)c32)cc1Br (stereo not drawn) [Compound 14, 2-Acetyl-6-amino-4-(3-bromo-4-methoxyphenyl)-3-(thiophen-2-yl)-2,4-dihydropyrano[2,3-c]pyrazole-5-carbonitrile] | 85 ± 2% | 530 ± 50 nM |
| COc1ccc(C2C(C#N)=COc3n[nH]c(-c4cccs4)c32)cc1Br (stereo not drawn) [Compound 15, 4-(3-Bromo-4-methoxyphenyl)-3-(thiophen-2-yl)-2,4-dihydropyrano [2,3-c]pyrazole-5-carbonitrile] | 0% | – |
